Measurements taken from patent US6057311A, “Benzodiazonine derivatives binding to cholecystokinin or gastrin receptors” (James Black Foundation Limited, priority 1996, dated 2000).

Tests used:
CCKA = biological target: T1, CCKA (Cavia porcellus, UniProt Q63931); assay: CCKA binding assay, guinea pig pancreas membranes ([125I]-CCK8(S)); settings: [125I]-CCK8(S) 200 pM, 0.375 μM PD134,308, 150 min at 21±3° C.; for Ki: pH 7.2, read-out: pKi (Guinea pig pancreas) (converted)
T1 construct: The pancreatata were removed from male guinea-pigs; from tissue; host or cells: pancreas of male Dunkin Hartley guinea pigs, membranes
T1 sequence (Q63931 1-430): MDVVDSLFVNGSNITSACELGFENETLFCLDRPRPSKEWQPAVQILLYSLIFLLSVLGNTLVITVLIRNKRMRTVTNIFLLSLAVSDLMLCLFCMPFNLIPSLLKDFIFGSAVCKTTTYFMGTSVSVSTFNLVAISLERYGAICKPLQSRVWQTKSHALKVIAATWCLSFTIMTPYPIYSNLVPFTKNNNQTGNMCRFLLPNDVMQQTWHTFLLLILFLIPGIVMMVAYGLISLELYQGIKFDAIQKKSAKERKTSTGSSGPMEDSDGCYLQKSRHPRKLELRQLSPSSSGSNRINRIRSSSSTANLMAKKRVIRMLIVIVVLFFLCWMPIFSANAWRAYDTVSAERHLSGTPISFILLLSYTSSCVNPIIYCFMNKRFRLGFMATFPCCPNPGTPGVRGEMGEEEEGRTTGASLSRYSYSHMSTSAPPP
Procedure, shortened: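 Guinea-pig pancreatic membranes (1 mg/ml original wet weight, containing 0.375 μM PD134,308) were incubated 150 min at 21±3 °C in HEPES pH 7.2 with [125I]-CCK8(S), added at 200 pM, and competitor. Non-specific binding used L-364,718 (100 nM added). Bound tracer was filtered on GF/B and gamma-counted.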

CCKB receptor = biological target: T2, CCKB receptor (Mus musculus, UniProt P56481); assay: radioligand binding assay at the CCKB receptor in mouse cortical membranes ([125I]-CCK8S); settings: [125I]-CCK8S 200 pM, 150 min at 21±3° C.; for Ki: pH 7.2, read-out: pKi (Mouse cortex) (converted)
T2 construct: The cortex was dissected, weighed and homogenised in 40 ml ice-cold buffer; tissue Charles River (animals); host or cells: cerebral cortex of male CD1 mice, membranes
T2 sequence (P56481 1-453): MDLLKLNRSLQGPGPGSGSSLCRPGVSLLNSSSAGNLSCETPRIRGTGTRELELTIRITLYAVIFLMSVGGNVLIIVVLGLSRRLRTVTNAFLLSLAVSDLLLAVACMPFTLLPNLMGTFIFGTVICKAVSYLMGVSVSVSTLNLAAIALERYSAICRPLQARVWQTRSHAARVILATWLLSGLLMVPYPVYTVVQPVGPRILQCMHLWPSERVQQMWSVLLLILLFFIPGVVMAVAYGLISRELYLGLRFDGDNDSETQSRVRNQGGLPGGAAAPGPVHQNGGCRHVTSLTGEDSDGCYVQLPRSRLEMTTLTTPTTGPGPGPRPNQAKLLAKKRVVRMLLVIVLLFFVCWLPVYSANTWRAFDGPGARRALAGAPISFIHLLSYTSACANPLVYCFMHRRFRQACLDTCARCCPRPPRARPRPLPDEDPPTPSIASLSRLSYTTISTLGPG
Procedure, shortened: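 Male CD1 mouse cortical membranes (2 mg/ml original wet weight) were incubated 150 min at 21±3 °C in HEPES buffer pH 7.2 (130 mM NaCl, 4.7 mM KCl, 5 mM MgCl2, 1 mM EDTA, bacitracin) with [125I]-CCK8S and competitor. Non-specific binding was defined with L-365,260; bound label was measured by GF/B filtration and gamma counting.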

Row | SMILES | pKi (Guinea pig pancreas) (CCKA; pH 7.2) | pKi (Mouse cortex) (CCKB receptor; pH 7.2) | Ki (CCKA) | Ki (CCKB receptor)
1 | CC(=O)N1[C@H](CC23CC4CC(CC(C4)C2)C3)C(=O)N(Cc2ccccc2)c2ccccc2C(=O)C[C@H]1C(=O)N(C)CC(=O)O (single isomer, unassigned; isomer 2) [Example 30] | 5.1 | 5.0 |  | 
2 | CC1CCN(C(=O)Nc2ccc3ccccc3c2)CC(=O)N(Cc2ccccc2)c2ccccc21 (stereo not shown) [Example 45, 1-benzyl-7-methyl-4-(2-naphthyl)carbamyl-2-oxo-2,3,4,5,6,7-hexahydro-1H-1,4-benzodiazonine] |  |  | 79.4 nM | 10000 nM
3 | CC(=O)N1[C@H](CC23CC4CC(CC(C4)C2)C3)C(=O)N(Cc2ccc(Cl)cc2)c2ccccc2C(=O)C[C@H]1C(=O)O [Example 16, (3R,5S)-4-acetyl-3-[(1-adamantyl)methyl]-1-(4-chloro)benzyl-2,7-dioxo-2,3,4,5,6,7-hexahydro-1H-1,4-benzodiazonine-5-carboxylate] |  |  | 2000 nM | 1580 nM
4 | COC(=O)CNC(=O)[C@@H]1CC(=O)c2ccccc2N(Cc2ccccc2)C(=O)[C@@H](CC23CC4CC(CC(C4)C2)C3)N1C(C)=O [Example 37, (3R,5S)-4-acetyl-3-(1-adamantyl)methyl-1-benzyl-5-methoxycarbonylmethylaminocarbonyl-2,7-dioxo-2,3,4,5,6,7-hexahydro-1H-1,4-benzodiazonine] |  |  | 6310 nM | 1580 nM
5 | CC1CCN(C(=O)Nc2ccc(Cl)c(Cl)c2)CC(=O)N(Cc2ccccc2)c2ccccc21 (stereo not shown) [Example 44, 1-benzyl-4-(3,4-dichlorophenyi)carbamyl-7-methyl-2-oxo-2,3,4,5,6,7-hexahydro-1H-1,4-benzodiazonine] |  |  | 158 nM | 3160 nM
